Assay results published in patent US11767313B2, “Compounds as nuclear transport modulators and uses thereof” (XWPHARMA LTD., priority 2018, dated 2023).
Where two headings read alike, the source gives them in different places.

Columns and labels:
U87MG = experiment: CellTiter-Glo cell proliferation assay, U87MG; format: cell-based, human; conditions: U87MG, Table 12; for IC50: Homo sapiens, U-87 MG; for Bottom / Hill Slope / Top: curve fit
Protocol: (§1) CellTiter-Glo® Luminescent Cell Viability assay (with Promega CellTiter 96® Luminescent CellTiter-Glo® kit) was used to study the proliferation inhibition by test compounds. Compounds were resuspended in DMSO to make a 25 mM stock suspension. Cells of cancer cell lines or normal tissues were seeded in 96-well plates at 1,500 to 5,000 cells/well overnight. Compounds were 2- or 3-fold diluted serially to obtain 10 concentrations. Then, the drugs were added to the cell wells by Bravo (Agilent) and incubated for 72 hours. The cells were lysed by adding CellTiter-Glo® Reagent (per manufacturer's instructions) and subsequently, the luminescence was read using EnVision® (PerkinElmer).
(§2) The percent of growth was calculated as follows. DMSO-treated cells were employed as vehicle control (High control, HC) and culture medium alone was employed as background (Low control, EC). % growth=100×(Lum sample−Lum EC)/(Lum HC−Lum EC). The ICso was calculated by concentration-response curve fitting using Graphpad Prism.
(§3) Hematological cancer cell lines tested included OCI-AML3, MV-4-11, KG-1, Kasumi-1, K562, THP-1; solid cancer cell lines tested included U87MG, U251, T98G, LN229, A172, H460, H2009, A549; normal cell lines tested included HCN2 and 3T3-L1. […] However, they were not toxic to in vitro cultured normal cells.

U251 = experiment: CellTiter-Glo cell proliferation assay, U251; format: cell-based; conditions: Table 11, read-out: Absolute IC50 (μM) U251
Protocol: as §1, §2, §3

LN-229 = experiment: CellTiter-Glo cell proliferation assay, LN-229; format: cell-based; conditions: Table 11, read-out: Absolute IC50 (μM) LN-229
Protocol: as §1, §2, §3

T98G = experiment: CellTiter-Glo cell proliferation assay, T98G; format: cell-based; conditions: Table 11, read-out: Absolute IC50 (μM) T98G
Protocol: as §1, §2, §3

XPO1 [1] = molecular target: T1, XPO1 (Homo sapiens, UniProt O14980); experiment: Compound washout assay in REV-GFP cells
Protocol: In order to evaluate the duration of XPO1 inhibition by test compounds on XPO1 protein after washout, washout assay was performed using REV-GFP cells. The test compounds and positive control were added to the cell well, and the plate was incubated the at 37° C. and 5% CO2 for 1 h. The drug-containing media were removed, the cells were washed, and the fresh media were added. The cells were imagined at the specified time points 0, 4, 24, 48, 72, and 96 hours to evaluate the inhibition of REV nuclear export. […] 4A. […] 4B. […] 4C.

XPO1 [2] = molecular target: T1, XPO1; experiment: REV-GFP translocation assay in U2OS cells; format: cell-based; parameters: endogenous in cells; host or cells: U2OS cells stably expressing REV-GFP (clones from HD Biosciences); conditions: for EC50: 1 h
Protocol: LTD in China, and cells were cultured with growth medium. […] The highest Leptomycin B (LMB) concentration was set to 50 nM and serially diluted as the positive control, while the highest concentrations of other compounds were set to 10 μM. The cells treated with various drugs or DMSO, were incubated at 37° C. and 5% CO2 for 1 h. Then, cells were fixed with 4% formaldehyde for 15 min at room temperature. The cells were washed and stained with 100 μL Hoechst 33342 working solution for 10 min at room temperature in dark, after which the cell fluorescence was imaged with the High-Content Imaging System, ImageXpress® (Molecular Devices) using the 20× objective. The filters were set for Hoechst (350/461 nm) and GFP/FITC (488/509 nm) (wavelength for excitation and emission maxima). The % effect of REV nuclear translocation was calculated with the following formula: % effect=([…]- signals from testing compounds; ILMB-signals of 50 nM LMB group; ICTRL-signals of vehicle control group.

T1 sequence (O14980 whole entry): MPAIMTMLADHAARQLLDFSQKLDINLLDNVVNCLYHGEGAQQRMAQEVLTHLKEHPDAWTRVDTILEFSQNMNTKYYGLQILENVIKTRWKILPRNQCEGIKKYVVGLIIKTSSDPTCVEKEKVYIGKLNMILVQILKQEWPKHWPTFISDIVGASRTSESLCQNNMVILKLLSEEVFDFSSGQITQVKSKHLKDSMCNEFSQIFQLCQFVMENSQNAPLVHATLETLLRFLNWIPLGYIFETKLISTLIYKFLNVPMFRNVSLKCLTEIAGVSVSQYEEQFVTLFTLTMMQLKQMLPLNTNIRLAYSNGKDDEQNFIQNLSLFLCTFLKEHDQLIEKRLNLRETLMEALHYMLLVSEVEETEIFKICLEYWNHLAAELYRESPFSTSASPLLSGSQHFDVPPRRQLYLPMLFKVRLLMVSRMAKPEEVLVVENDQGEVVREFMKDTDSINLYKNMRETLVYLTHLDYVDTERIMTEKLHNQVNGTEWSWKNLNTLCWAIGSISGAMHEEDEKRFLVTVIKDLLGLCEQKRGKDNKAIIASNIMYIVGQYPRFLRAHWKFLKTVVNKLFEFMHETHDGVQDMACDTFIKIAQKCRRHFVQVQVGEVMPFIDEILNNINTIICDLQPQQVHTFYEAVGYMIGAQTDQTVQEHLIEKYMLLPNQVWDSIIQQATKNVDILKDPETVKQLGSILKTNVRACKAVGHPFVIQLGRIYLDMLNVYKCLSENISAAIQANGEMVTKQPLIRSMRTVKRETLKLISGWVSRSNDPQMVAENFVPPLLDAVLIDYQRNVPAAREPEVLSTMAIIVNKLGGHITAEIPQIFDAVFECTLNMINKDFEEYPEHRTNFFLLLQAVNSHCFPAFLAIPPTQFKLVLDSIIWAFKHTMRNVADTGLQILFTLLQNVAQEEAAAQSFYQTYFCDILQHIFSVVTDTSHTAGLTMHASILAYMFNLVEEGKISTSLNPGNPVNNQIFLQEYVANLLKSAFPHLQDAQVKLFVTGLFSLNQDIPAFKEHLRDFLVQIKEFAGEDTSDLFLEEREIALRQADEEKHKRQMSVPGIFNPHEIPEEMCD

Compound: CCCC(=O)NNC(=O)/C=C\n1cnc(-c2cc(C(F)(F)F)cc(S(F)(F)(F)(F)F)c2)n1 [Compound IX, (Z)—N′-(3-(3-(3-(Pentafluorosulfaneyl)-5-(trifluoromethyl)phenyl)-1H-1,2,4-triazol-1-yl)acryloyl)butyrohydrazide]
- IC50 (U87MG; read-out: Relative IC50): 100 nM
- Max % Inhibition (U87MG): 48.3%
- Bottom (U87MG): −4.6
- Hill Slope (U87MG): 1.6
- Top (U87MG): 43.6

Compound: N.N.[Cl][Pt][Cl] [Cisplatin, reference compound]
- IC50 (U251): 6 µM
- IC50 (LN-229): 13 µM
- IC50 (T98G): 12.3 µM

Compound: CCC(=C/[C@H](C)C/C=C/C(C)=C/[C@@H](C)C(=O)[C@@H](C)[C@H](O)[C@@H](C)C/C(C)=C/C(=O)O)/C=C/[C@@H]1OC(=O)C=C[C@@H]1C [LMB, Leptomycin B, reference compound]
- sustained retention of REV protein in the nucleus post washout (XPO1 [1]; 50 nM, 1 h treatment then washout): up to 24 hours
- effect on retention of REV protein in the nucleus (XPO1 [1]; 50 nM, 72 hours post washout): 30%
- toxicity / cell number compared to the control (XPO1 [1]; washout assay): showed toxicity
- EC50 (XPO1 [2]; Rev-GFP-U2OS cells, FIG. 1B, read-out: EC50 in the Rev redistribution): 0.11 nM

Compound: O=C(/C=C\n1cnc(-c2cc(C(F)(F)F)cc(S(F)(F)(F)(F)F)c2)n1)NNC(=O)C1CC1 [Compound VII, (Z)—N′-(3-(3-(3-(Pentafluorosulfaneyl)-5-(trifluoromethyl)phenyl)-1H-1,2,4-triazol-1-yl)acryloyl)cyclopropanecarbohydrazide]
- IC50 (U87MG; read-out: Relative IC50): 100 nM
- Max % Inhibition (U87MG): 49.0%
- Bottom (U87MG): −6.4
- Hill Slope (U87MG): 1.2
- Top (U87MG): 45.9

Compound: CC(CO)(CCl)C(=O)NNC(=O)/C=C\n1cnc(-c2cc(C(F)(F)F)cc(S(F)(F)(F)(F)F)c2)n1 (centres unmarked) [Compound XII, (Z)—N′-(3-Chloro-2-(hydroxymethyl)-2-methylpropanoyl)-3-(3-(3-(pentafluorosulfaneyl)-5-(trifluoromethyl)phenyl)-1H-1,2,4-triazol-1-yl)acrylohydrazide]
- IC50 (U87MG; read-out: Absolute IC50): 18500 nM
- IC50 (U87MG; read-out: Relative IC50): 600 nM
- Max % Inhibition (U87MG): 53.9%
- Bottom (U87MG): −5.5
- Hill Slope (U87MG): 1.2
- Top (U87MG): 50.9

Compound: O=C(/C=C\n1cnc(-c2cc(C(F)(F)F)cc(S(F)(F)(F)(F)F)c2)n1)NNc1nccs1 [Compound VI, (Z)-3-(3-(3-(Pentafluorosulfaneyl)-5-(trifluoromethyl)phenyl)-1H-1,2,4-triazol-1-yl)-N′-(thiazol-2-yl)acrylohydrazide]
- IC50 (U251; Homo sapiens, U-251): 3.8 µM
- IC50 (LN-229; Homo sapiens, LN-229): 1.7 µM
- IC50 (T98G; Homo sapiens, T98G): 2.6 µM
- EC50 (XPO1 [2]; REV-EGFP U2OS cells, Table 2, read-out: Rev-GFP/EC50): 25.2 nM
- IC50 (XPO1 [2]; Table 10, first (or only) value of the cell): 25.2 nM

Compound: O=C(/C=C\n1cnc(-c2cc(C(F)(F)F)cc(S(F)(F)(F)(F)F)c2)n1)NNC(=O)C1CCC1 [Compound X, (Z)—N′-(3-(3-(3-(Pentafluorosulfaneyl)-5-(trifluoromethyl)phenyl)-1H-1,2,4-triazol-1-yl)acryloyl)cyclobutanecarbohydrazide]
- IC50 (U87MG; read-out: Absolute IC50): 9400 nM
- IC50 (U87MG; read-out: Relative IC50): 200 nM
- Max % Inhibition (U87MG): 58.3%
- Bottom (U87MG): −15.9
- Hill Slope (U87MG): 0.5
- Top (U87MG): 59.4

Compound: CC(C)C(=O)NNC(=O)/C=C\n1cnc(-c2cc(C(F)(F)F)cc(S(F)(F)(F)(F)F)c2)n1 [Compound VIII, (Z)—N′-Isobutyryl-3-(3-(3-(pentafluorosulfaneyl)-5-(trifluoromethyl)phenyl)-1H-1,2,4-triazol-1-yl)acrylohydrazide]
- IC50 (U87MG; read-out: Relative IC50): 100 nM
- Max % Inhibition (U87MG): 44.0%
- Bottom (U87MG): −10.6
- Hill Slope (U87MG): 1.8
- Top (U87MG): 38.8

Compound: CC(C)(C)C(=O)NNC(=O)/C=C\n1cnc(-c2cc(C(F)(F)F)cc(C(F)(F)F)c2)n1 [KPT-350, (Z)-3-(3-(3,5-bis(trifluoromethyl)phenyl)-1H-1,2,4-triazol-1-yl)-N′-pivaloylacrylohydrazide, reference compound]
- IC50 (U87MG; read-out: Absolute IC50): 10000 nM
- IC50 (U87MG; read-out: Relative IC50): 300 nM
- Max % Inhibition (U87MG): 49.4%
- Bottom (U87MG): −13.2
- Hill Slope (U87MG): 0.8
- Top (U87MG): 53.0

Compound: CC1(C(=O)NNC(=O)/C=C\n2cnc(-c3cc(C(F)(F)F)cc(S(F)(F)(F)(F)F)c3)n2)CC1 [Compound XI, (Z)-1-Methyl-N′-(3-(3-(3-(pentafluorosulfaneyl)-5-(trifluoromethyl)phenyl)-1H-1,2,4-triazol-1-yl)acryloyl)cyclopropane-1-carbohydrazide]
- IC50 (U87MG; read-out: Relative IC50): 200 nM
- Max % Inhibition (U87MG): 48.5%
- Bottom (U87MG): −7.6
- Hill Slope (U87MG): 1.8
- Top (U87MG): 44.6
